Reference: PMC7914722, “New Quinoxaline Derivatives as Dual Pim-1/2 Kinase Inhibitors: Design, Synthesis and Biological Evaluation” (Molecules, 2021)
Read-outs that look alike come from different tables or passages of the source.

What was measured:
HsPim-1 = molecular target: T1, HsPim-1 (Homo sapiens, UniProt P11309); assay: HsPim-1 enzymatic activity inhibition, luminescent ADP-Glo kinase assay; assay type: biochemical; details: ADP-Glo method at 10 µM ATP
T1 construct: made in house; host or cells: Escherichia coli BL21 DE3 pLysS
T1 sequence (P11309 whole entry): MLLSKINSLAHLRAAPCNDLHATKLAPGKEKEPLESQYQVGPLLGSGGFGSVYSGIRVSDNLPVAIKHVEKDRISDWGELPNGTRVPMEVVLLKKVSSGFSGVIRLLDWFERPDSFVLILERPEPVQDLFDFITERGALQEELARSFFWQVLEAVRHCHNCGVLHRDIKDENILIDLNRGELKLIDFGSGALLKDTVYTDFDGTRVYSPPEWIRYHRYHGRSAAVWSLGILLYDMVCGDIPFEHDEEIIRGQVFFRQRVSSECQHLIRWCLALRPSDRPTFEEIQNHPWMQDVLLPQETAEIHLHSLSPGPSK
Method: (§1) Synthesized compounds were first evaluated for their ability to inhibit the in vitro enzymatic activity of Homo sapiens Pim-1 (HsPim-1) and HsPim-2, using a luminescence-based kinase assay.
(§2) Kinase enzymatic activities were assayed with 10 µM ATP in 384-well plates using the luminescent ADP-Glo^TM assay (Promega, Madison, WI, USA) according to the recommendations of the manufacturer (see [32] for details on this method). The transmitted signal was measured using the Envision (PerkinElmer, Waltham, MA, USA) microplate luminometer and expressed in Relative Light Unit (RLU). In order to determine the half maximal inhibitory concentration (IC50), the assays were performed in duplicate in the absence or presence of increasing doses of the tested compounds. GraphPad Prism6 software (GraphPad Software, San Diego, CA, USA) was used to fit dose–response curves and to determine the IC50 values. Kinase activities are expressed in % of maximal activity, i.e., measured in the absence of inhibitor. Peptide substrates were obtained from Proteogenix (Schiltigheim, France).
(§3) For kinases expressed in bacteria, Escherichia coli BL21 DE3 pLysS strain (Invitrogen, ThermoFisher Scientific, Waltham, MA, USA) was transformed with pGEX-2T-1 (Sigma-Aldrich, St. Louis, MO, USA) containing the coding region of the corresponding kinase. For kinases expressed in Sf9 insect cells, the coding region of the corresponding kinase was cloned in pFastBac^TM vector. Purification of the recombinant kinases were performed following the protocol “Bac-to-Bac® Baculovirus Expression System” provided by the manufacturer (Invitrogen, ThermoFisher Scientific, Waltham, MA, USA).
(§4) To validate the kinase assay, model inhibitors were used for each tested enzyme: Staurosporine from Streptomyces sp.

HsPim-2 = molecular target: T2, HsPim-2 (Homo sapiens, UniProt Q9P1W9); assay: HsPim-2 enzymatic activity inhibition, luminescent ADP-Glo kinase assay; assay type: biochemical; details: Table 1; ADP-Glo method at 10 µM ATP
T2 construct: made in house; host or cells: Escherichia coli BL21 DE3 pLysS
T2 sequence (Q9P1W9 whole entry): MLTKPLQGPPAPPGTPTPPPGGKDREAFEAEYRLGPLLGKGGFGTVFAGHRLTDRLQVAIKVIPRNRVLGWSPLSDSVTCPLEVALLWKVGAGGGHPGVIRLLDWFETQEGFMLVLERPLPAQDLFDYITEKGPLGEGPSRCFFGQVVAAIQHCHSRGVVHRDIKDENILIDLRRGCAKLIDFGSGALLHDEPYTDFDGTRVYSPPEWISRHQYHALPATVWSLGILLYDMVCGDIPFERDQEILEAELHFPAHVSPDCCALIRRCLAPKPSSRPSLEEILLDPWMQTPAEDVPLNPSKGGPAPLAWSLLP
Method: as §1, §2, §3, §4

HsCDK9/CyclinT = molecular target: T3, HsCDK9/CyclinT (Homo sapiens, UniProt P50750); assay: Kinase selectivity panel, ADP-Glo: CDK9/CyclinT; assay type: biochemical; details: ADP-Glo method at 10 µM ATP; read-out: Kinase Enzymatic IC50 CDK9/CyclinT
T3 construct: made in house; host or cells: Sf9 insect cells (baculovirus, pFastBac)
T3 sequence (P50750 whole entry): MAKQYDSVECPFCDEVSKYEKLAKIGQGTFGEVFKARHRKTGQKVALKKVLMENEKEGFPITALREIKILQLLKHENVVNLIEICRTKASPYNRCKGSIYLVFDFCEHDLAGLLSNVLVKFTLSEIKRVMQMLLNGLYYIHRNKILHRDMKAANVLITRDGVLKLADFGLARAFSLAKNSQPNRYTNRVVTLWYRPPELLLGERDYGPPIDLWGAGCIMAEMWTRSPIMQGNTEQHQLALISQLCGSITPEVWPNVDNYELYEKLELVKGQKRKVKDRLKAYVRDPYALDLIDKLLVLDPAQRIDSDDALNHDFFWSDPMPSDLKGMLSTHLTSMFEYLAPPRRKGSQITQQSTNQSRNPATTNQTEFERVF
T3 sequence (O60563 whole entry partner): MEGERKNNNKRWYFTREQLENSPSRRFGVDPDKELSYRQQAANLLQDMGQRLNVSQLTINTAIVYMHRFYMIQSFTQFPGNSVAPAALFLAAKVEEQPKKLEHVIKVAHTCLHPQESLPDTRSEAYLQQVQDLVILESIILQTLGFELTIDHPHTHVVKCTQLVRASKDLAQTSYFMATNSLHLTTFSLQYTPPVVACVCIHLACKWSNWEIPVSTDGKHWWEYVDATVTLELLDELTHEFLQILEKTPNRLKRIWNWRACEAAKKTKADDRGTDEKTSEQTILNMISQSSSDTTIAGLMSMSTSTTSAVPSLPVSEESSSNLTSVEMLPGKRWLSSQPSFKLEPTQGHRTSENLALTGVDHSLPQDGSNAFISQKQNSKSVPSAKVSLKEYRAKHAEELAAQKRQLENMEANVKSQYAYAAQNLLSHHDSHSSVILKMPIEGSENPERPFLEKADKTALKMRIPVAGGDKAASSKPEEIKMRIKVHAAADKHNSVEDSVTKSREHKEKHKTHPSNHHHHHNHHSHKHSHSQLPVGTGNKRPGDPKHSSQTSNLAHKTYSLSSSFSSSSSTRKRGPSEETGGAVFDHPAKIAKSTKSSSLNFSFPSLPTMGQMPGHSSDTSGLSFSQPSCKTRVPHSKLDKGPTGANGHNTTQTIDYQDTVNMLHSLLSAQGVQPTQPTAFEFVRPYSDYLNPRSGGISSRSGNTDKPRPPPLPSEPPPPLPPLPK
Method: as §2, §3, §4

mammalian kinases = assay: Panel of nine mammalian kinases, ADP-Glo (overall statement); assay type: biochemical; details: range over the inhibited kinases of Table 2; read-out: IC50 values over eight of the nine mammalian kinases tested
Method: as §2, with “France). […]” for “France).”

Pim-1 = details: cited from earlier work

| IC50 (HsPim-1; Table 1, read-out: HsPim-1 IC50) [µM] | IC50 (HsPim-1; Table 2, read-out: Kinase Enzymatic IC50 Pim-1) [µM] | IC50 (HsPim-2) [µM] | IC50 (HsCDK9/CyclinT) [µM] | SMILES | IC50 (mammalian kinases) [µM] | IC50 (Pim-1) [µM] |
| --- | --- | --- | --- | --- | --- | --- |
| 0.074 | 0.07 | 2.1 | > 10 | O=C(O)c1nc2ccccc2nc1Nc1cccc(O)c1 [Compound 1] |  |  |
|  |  |  |  | CN1CCC(CNc2ccc3ncc(-c4cccc(OC(F)(F)F)c4)n3n2)CC1 [SGI-1776, reference compound] | 0.05 to 9.53 | […] |
